Measured values taken from US11311533B2, “Opioid receptor antagonist conjugate and use thereof” (SHANGHAI HANMAI BIO-PHARMA CO., LTD., priority 2016, dated 2022).
“And” between values parts separate entries of the source, which are not always exact repeats. Identical values can stand only once. Counter-ions that a name gives are not always drawn. Like-named read-outs stand apart in the source and are kept apart here.

What was measured:
[1] = test system: mice; assay: Anti-constipation study: antagonizing the antidiarrheal effect of loperamide hydrochloride (castor oil diarrhea); type: in vivo
Protocol: The anti-constipation study experiment was completed by using the test of antagonizing the antidiarrheal effect of loperamide hydrochloride. The specific experiment process was: the mice were divided into groups randomly, eight mice each group, wherein one group was administered with 0.5 mL of castor oil by gavage, one group was administered with 2 mg/kg loperamide hydrochloride and 0.5 mL of castor oil by gavage, and conjugate test groups were respectively administered with Na1021 (300 nmol/kg), Na1029 (300 nmol/kg), Na1033 (300 nmol/kg) and Na1045 (600 nmol/kg) by gavage first, and then with 2 mg/kg loperamide and 0.5 mL castor oil by gavage.
The mice were divided into groups randomly, eight mice each group, wherein one group was administered with 0.5 mL of castor oil by gavage, one group was administered with 2 mg/kg loperamide and 0.5 mL castor oil by gavage, other groups were respectively administered with different doses of conjugate Na1029 first, then with 2 mg/kg loperamide hydrochloride and 0.5 mL castor oil by gavage.

[2] = test system: mice; assay: Mouse hot plate analgesia experiment (antagonism of morphine analgesia, blood-brain barrier study); conditions: for Average Pain Threshold after Administration (s) Mean ± SD: 60 minutes after administration; for Passage through the blood-brain barrier (concluded from antagonism of the analgesic effect of morphine): mouse hot plate, conjugate subcutaneous after morphine by gavage
Protocol: Six conjugates Na1021, Na1029, Na1045, Na1037, Na1041, and Na1049 were subjected to mouse hot plate analgesia experiments for four times, respectively. In each experiment, mice (JOINN Laboratories (Suzhou)) were randomly divided into four groups (eight per group): one blank control group, one morphine control group, and two other groups which were administered with morphine by gavage first, and then low dose and high dose of the conjugates were subcutaneously injected respectively. The mice were put on a hot plate (55±0.1) ° C. before administration, and the time was recorded immediately. The duration from the beginning on the hot plate to the first hind paw licking was recorded as the reaction time of heat-pain sensation (i.e., pain threshold, the unit is second (s)). The pain threshold was set as 100% analgesia if there was no hind paw licking in 60 seconds. It was recorded as 60 seconds when the time exceeded 60 seconds to prevent burn of foot. The mice were again put on a (55±0.1) ° C. hot plate 60 minutes after the administration of drug and the reaction time of heat-pain sensation was recorded. […] The value of the pain thresholds before and after administration was compared and the percentage of increase in pain threshold was calculated according to the following formula to determine the effect of drug on antagonizing morphine analgesia. Percentage of increase in pain threshold=[(average heat pain threshold after administration−average pain threshold before administration)/average pain threshold before administration]×100%

[3] = target: T1, OPRM1 (Mμ opioid receptor gene) receptor (Homo sapiens, UniProt P35372); assay: cell-based; conditions: for inhibition at 10 µM: OPRM1, read-out: Inhibition rate (%) of highest concentration (mean ± standard deviation) (N = 2)
Protocol: (§1) Cell suspension was inoculated into a 384-well microplate at a density of 15,000 cells per well, and cultured in a 37° C./5% CO2 incubator for at least 18 hours before experiment.
(§2) Before the test, the conjugates to be tested was diluted with HBSS buffer (containing 20 mM HEPES) and prepared as 5× solution with a concentration five times of the test solution. […] The concentration of the corresponding control DMSO is 0.1%.
(§3) The protocol for preparing agonist detection: cells were inoculated into 384-well microplates, 20 μl of cell suspension per well (containing 15,000 cells); the plate was placed in 37° C./5% CO2 incubator to continue the culture; cells were taken out after 18 hours, and dye was added, 20 μl per well; the plate was incubated in 37° C./5% CO2 incubator for 1 hour and equilibrated at room temperature for 15 minutes; and 10 μl of 5× test solution of agonist was added to each well for RFU value detection.
(§4) The protocol for preparing inhibitor detection: cells were inoculated into 384-well microplates, 20 μl of cell suspension per well (containing 15,000 cells); the plate was placed in 37° C./5% CO2 incubator to continue the culture; cells were taken out after 18 hours; for the inhibitor detection, 20 μl of dye was added to the plate, and then 10 μl of prepared conjugate solution was added; the plate was incubated in 37° C./5% CO2 for 1 hour and equilibrate at room temperature for 15 minutes; 12.5 μl of 5× EC80 positive agonist was added for RFU value detection.
(§5) The 384-well microplate containing the conjugate solution (5× test concentration), cell plate and pipette tip box were placed in FLIPR (Molecule Devices), and the agonist detection program was run. The overall detection time of the instrument was 120 seconds. 10 μl of agonist was automatically added to the plate at the 21st second. […] (Molecule Devices), and the inhibitor detection program was run. The overall detection time of the instrument was 120 seconds. 12.5 μl of positive agonist was automatically added to the plate at the 21st second.

[4] = target: T1, OPRM1 (Mμ opioid receptor gene) receptor
Protocol: as §1, §2, §3, §4, §5

[5] = Table 10: 300 nmol/kg by gavage + Loperamide Hydrochloride + Castor Oil

T1 sequence (P35372 whole entry): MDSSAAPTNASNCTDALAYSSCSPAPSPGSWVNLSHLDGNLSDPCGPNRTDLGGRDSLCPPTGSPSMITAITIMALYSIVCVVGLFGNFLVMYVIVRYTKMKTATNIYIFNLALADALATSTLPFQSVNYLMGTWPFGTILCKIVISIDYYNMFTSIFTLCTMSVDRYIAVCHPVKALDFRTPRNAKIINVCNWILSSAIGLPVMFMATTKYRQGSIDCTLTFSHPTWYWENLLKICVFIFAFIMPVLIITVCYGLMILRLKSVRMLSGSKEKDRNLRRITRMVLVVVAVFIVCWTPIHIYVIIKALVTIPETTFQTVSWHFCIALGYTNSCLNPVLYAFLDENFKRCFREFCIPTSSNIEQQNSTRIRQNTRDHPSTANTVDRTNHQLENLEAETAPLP

SMILES: CN(C)C(=O)C(CCN1CCC(O)(c2ccc(Cl)cc2)CC1)(c1ccccc1)c1ccccc1 [Loperamide Hydrochloride, loperamide hydrochloride, reference compound]
- Total Number of Diarrhea Times Six Hours after Administration ([1]; Table 10: 2 mg/kg loperamide hydrochloride + 0.5 mL castor oil by gavage, no conjugate): 10.88 ± 7.14
- Total Number of Diarrhea Times Six Hours after Administration ([1]; Table 11: 2 mg/kg loperamide + 0.5 mL castor oil by gavage, no conjugate): 5.75 ± 3.69

SMILES: C=CCN1CC[C@]23c4c5ccc(O)c4O[C@H]2[C@@H](OCCOCCOCCOCCOCCOCCOCCOCCOC)CC[C@@]3(O)[C@H]1C5 [Nal049, mPEG8-(6-α-naloxol)-ether]
- Average Pain Threshold before Administration (s) Mean ± SD ([2]; 4 μmol/kg + Morphine group): 14.00 ± 7.09 s
- Percentage of Increase in Pain Threshold ([2]; 4 μmol/kg + morphine): 125.93%
- Average Pain Threshold after Administration (s) Mean ± SD ([2]; 4 μmol/kg subcutaneous + Morphine by gavage): 31.63 ± 10.04 s
- Average Pain Threshold before Administration (s) Mean ± SD ([2]; 20 μmol/kg + Morphine group): 13.5 ± 5.07 s
- Percentage of Increase in Pain Threshold ([2]; 20 μmol/kg + morphine): 91.70%
- Average Pain Threshold after Administration (s) Mean ± SD ([2]; 20 μmol/kg subcutaneous + Morphine by gavage): 25.88 ± 7.64 s
- Passage through the blood-brain barrier (concluded from antagonism of the analgesic effect of morphine) [2]: cannot pass through the blood-brain barrier
- IC50 [3]: 1050 nM
- inhibition at 10 µM [3]: 94.3 ± 5.39%

SMILES: C=CCN1CCC23c4c5ccc(O)c4OC2C(OCCOCCOCCOCCOCCOCCOC)CCC3(O)C1C5 (stereo not drawn) [Nal046, mPEG6-(6-β-naloxol)-ether]
- IC50 ([4]; CHO-K1/Gα15/OPRM1 cells, inhibitor detection against EC80 positive agonist, RFU): 3840 nM
- Inhibition rate (%) of highest concentration (mean ± standard deviation) (N = 2) ([4]; highest concentration 10000 nM): 79.55 ± 5.73%

SMILES: Oc1ccc2c3c1O[C@H]1[C@@H](OCCOCCOCCOCCOCCOCCO[C@H]4CC[C@@]5(O)[C@H]6Cc7ccc(O)c8c7[C@@]5(CCN6CC5CC5)[C@H]4O8)CC[C@@]4(O)[C@@H](C2)N(CC2CC2)CC[C@]314 [Nal025, PEG6-(6-α-naltrexol)2-ether]
- IC50 [3]: 185 nM
- inhibition at 10 µM [3]: 100.6 ± 0.48%

SMILES: Oc1ccc2c3c1O[C@H]1[C@@H](OCCOCCOCCOCCOCCOCCOCCOCCO[C@H]4CC[C@@]5(O)[C@H]6Cc7ccc(O)c8c7[C@@]5(CCN6CC5CC5)[C@H]4O8)CC[C@@]4(O)[C@@H](C2)N(CC2CC2)CC[C@]314 [Nal029, PEG8-(6-α-naltrexol)2-ether]
- Average Pain Threshold before Administration (s) Mean ± SD ([2]; 3.66 μmol/kg + Morphine group): 20.00 ± 5.71 s
- Percentage of Increase in Pain Threshold ([2]; 3.66 μmol/kg + morphine): 200.00%
- Average Pain Threshold after Administration (s) Mean ± SD ([2]; 3.66 μmol/kg subcutaneous + Morphine by gavage): 60.00 ± 0 s
- Average Pain Threshold before Administration (s) Mean ± SD ([2]; 18.28 μmol/kg + Morphine group): 22.13 ± 7.26 s
- Percentage of Increase in Pain Threshold ([2]; 18.28 μmol/kg + morphine): 155.31%
- Average Pain Threshold after Administration (s) Mean ± SD ([2]; 18.28 μmol/kg subcutaneous + Morphine by gavage): 56.5 ± 9.90 s
- Passage through the blood-brain barrier (concluded from antagonism of the analgesic effect of morphine) [2]: cannot pass through the blood-brain barrier
- Antagonism of the antidiarrheal effect of loperamide hydrochloride compared with the model control group ([1]; Example 9, dose-dependent): significantly antagonize
- Total Number of Diarrhea Times Six Hours after Administration [1, 5]: 20.88 ± 5.82
- Total Number of Diarrhea Times Six Hours after Administration ([1]; Table 10: 300 nmol/kg by gavage + Loperamide Hydrochloride + Castor Oil, listed as Na1029): relatively high
- Total Number of Diarrhea Times Six Hours after Administration ([1]; Table 11: 10 μg/kg + Loperamide Hydrochloride + Castor Oil): 5.25 ± 7.42
- Total Number of Diarrhea Times Six Hours after Administration ([1]; Table 11: 30 μg/kg + Loperamide Hydrochloride + Castor Oil): 6.50 ± 5.88
- Total Number of Diarrhea Times Six Hours after Administration ([1]; Table 11: 100 μg/kg + Loperamide Hydrochloride + Castor Oil): 12.13 ± 5.67
- Total Number of Diarrhea Times Six Hours after Administration ([1]; Table 11: 500 μg/kg + Loperamide Hydrochloride + Castor Oil): 18.25 ± 3.99
- EC50 for antagonizing the antidiarrheal effect of loperamide hydrochloride ([1]; dose-response in mice, Table 11 and FIG. 1): ~0.086 mg/kg
- IC50 [3]: 161 nM
- inhibition at 10 µM [3]: 98 ± 3.09%

SMILES: CN1CC[C@]23c4c5ccc(O)c4O[C@H]2[C@@H](O)C=C[C@H]3[C@H]1C5 [Morphine, morphine, reference compound]
- Average Pain Threshold after Administration (s) Mean ± SD ([2]; morphine control group, cut-off 60 s): 53.25 ± 10.96 s and 52.00 ± 9.67 s and 38.5 ± 15.58 s and 39.00 ± 17.25 s
- Average Pain Threshold before Administration (s) Mean ± SD ([2]; morphine control group, hot plate 55 °C): 19.25 ± 5.57 s and 20.38 ± 3.93 s and 20.88 ± 4.91 s and 15.12 ± 6.38 s

SMILES: Oc1ccc2c3c1O[C@H]1[C@@H](OCCOCCOCCOCCOCCOCCOCCOCCOCCOCCO[C@H]4CC[C@@]5(O)[C@H]6Cc7ccc(O)c8c7[C@@]5(CCN6CC5CC5)[C@H]4O8)CC[C@@]4(O)[C@@H](C2)N(CC2CC2)CC[C@]314 [Nal033, PEG10-(6-α-naltrexol)2-ether]
- Total Number of Diarrhea Times Six Hours after Administration [1, 5]: 15.25 ± 4.13
- IC50 [3]: 197 nM
- inhibition at 10 µM [3]: 99.1 ± 1%
